Laboratory results from US11253015B2, “Methods and devices for preventing viral transmission” (priority 2020, dated 2022).
Like-named read-outs stand apart in the source and are kept apart here.

Tests used:
HUVEC cells [1] = test: EF-induced elongation of endothelial cells (long:short axis ratio); format: cell-based, human; settings: for long:short axis ratio in EF-treated cells: inhibitor present during EF
Experimental: HUVEC cells were seeded in a trough formed by two parallel (1 cm apart) strips of glass coverslip (No. 1, length of 22 mm) fixed to the base of the dish with silicone grease. Scratch lines were made perpendicular to the long axis of the chamber with a fine sterile needle and used as reference marks for directed cell migration. Cells were incubated for 24-48 hours (37° C., 5% CO2) before a roof coverslip was applied and sealed with silicone grease. The final dimensions of the chamber, through which current was passed, were 22×10×0.2 mm. Agar-salt bridges not less than 15 cm long were used to connect silver/silver-chloride electrodes in beakers of Steinberg's solution (58 mM NaCl, 0.67 mM KCl, 0.44 mM Ca(NO3)2, 1.3 mM MgSO4, 4.6 mM Trizma base, pH 7.8-8.0), to pools of excess culture medium at either side of the chamber. Field strengths were measured directly at the beginning of, the end of and during each experiment. No fluctuations in field strength were observed. […] (50 μM), the Rho kinase inhibitor Y27632 (50 μM), both Akt and Rho kinase inhibitors (10 μM each) or latrunculin (50 nM) for 1 hour before EF stimulation. The same concentration of drug was present during EF exposure in a CO2 incubator.
A series of images was taken with an image analyser immediately before EF exposure and at 4, 8 and 24 hours of EF exposure. Cell orientation was quantified as an orientation index (Oi), which is defined as Oi=cos 2(α), where a is the angle formed by the long axis of a cell with a line drawn perpendicular to the field lines. A cell with its long axis parallel to the vector of the EF will have an Oi of −1, and a cell with its long axis exactly perpendicular to the EF vector will have an Oi of +1. […] The significance of this two-dimensional orientation distribution against randomness was calculated using Rayleigh's distribution. A long:short axis ratio was calculated for assessment of elongation.
HUVEC cells elongated dramatically in an EF. […] We quantified the elongation of the cells using a long:short axis ratio. […]

HUVEC cells [2] = test: EF-induced reorientation of endothelial cells (orientation index Oi); format: cell-based, human
Experimental: A series of images was taken with an image analyser immediately before EF exposure and at 4, 8 and 24 hours of EF exposure. Cell orientation was quantified as an orientation index (Oi), which is defined as Oi=cos 2(α), where a is the angle formed by the long axis of a cell with a line drawn perpendicular to the field lines. A cell with its long axis parallel to the vector of the EF will have an Oi of −1, and a cell with its long axis exactly perpendicular to the EF vector will have an Oi of +1. A randomly oriented population of cells will have an average Oi {defined as [Σn cos 2(α)]÷n} of 0. The significance of this two-dimensional orientation distribution against randomness was calculated using Rayleigh's distribution. A long:short axis ratio was calculated for assessment of elongation.
Cell alignment was quantified using an orientation index Oi=cos 2(α), where α is the angle formed between the long axis of a cell and a line drawn perpendicular to the field lines. In cells oriented perpendicular to the field vector, the Oi is +1, cells parallel to the field vector give an Oi of −1 and random orientation gives an Oi of 0.

[3] = test system: HaCaT human keratinocytes; test: scratch assay, keratinocyte migration (culture inserts, time-lapse microscopy); format: cell-based

With “1-L-6-hydroxymethyl-chiro-inositol 2-[(R)-2-O-methyl-3-O-octadecylcarbonate] [Akt inhibitor]” the “long:short axis ratio in EF-treated cells” value (HUVEC cells [1]) was “significantly decreased the long:short axis ratio” and the orientation response (HUVEC cells [2]; inhibitor 50 μM, 1 hour before and during EF) was “significantly decreased the orientation response”.
For `COc1cc([C@@H]2c3cc4c(cc3[C@H](O)[C@H]3COC(=O)[C@@H]23)OCO4)cc(OC)c1OC` [IGF-1R inhibitor, picropodophyllin], the “increased keratinocyte migration observed with LLEC, with IGF-1R inhibitor” value ([3]; 50 nM picropodophyllin just prior to scratch assay) was “attenuated the increased keratinocyte migration”.
For `C/C1=C/C(=O)O[C@@H]2C[C@@H](CC[C@H](C)/C=C\C=C\CC1)O[C@@](O)([C@@H]1CSC(=O)N1)C2` [Latrunculin A], the EF-induced elongation response (HUVEC cells [1]; latrunculin 50 nM) was “completely abolished” and the orientation response (HUVEC cells [2]; latrunculin 50 nM, 1 hour before and during EF) was “suppressed the orientation response significantly”.
For `CC(=O)N[C@@H](CS)C(=O)O` [N-Acetyl Cysteine], the “increased migration observed with LLEC, with N-Acetyl Cysteine” value ([3]; 5 mM, 1 h pretreatment before scratch assay) was “failed to reproduce the increased migration”.
With `N#CC(=C(/N)Sc1ccccc1N)/C(C#N)=C(\N)Sc1ccccc1N` [U0126] the orientation response (HUVEC cells [2]) was “decreased the orientation to a similar extent”.
`C[C@@H](N)[C@H]1CC[C@H](C(=O)Nc2ccncc2)CC1` [Y27632] was tested, and the “long:short axis ratio in EF-treated cells” value (HUVEC cells [1]) was “significantly decreased the long:short axis ratio” and the “Oi (orientation index)” value (HUVEC cells [2]; value in the sentence on U0126 (50 μM)) was 0.33±0.03.
